Data from US20060281806A1, “Treatment and inhibition of disease conditions using flexible heteroarotinoids” (priority 2005, published 2006).
“Also recorded” adds a separate entry of the source.

Legend:
[1] = tested on: ovarian carcinoma organotypic cultures; assay: Organotypic culture model of ovarian tumors; type: cell-based, human; conditions: 1 μM retinoid in media; 3, 7 or 14 days
Experimental: FIG. 17. Retinoid effects on ovarian carcinoma organotypic cultures. Organotypic cultures of OVCAR-3 (A, B, E, F, I and J), Caov-3 (C and G), SK-OV-3 (D and H), and O2 (K and L) were grown in the absence (−, top row and K) or presence (+, middle row and I, J and L) of retinoid HetA4 at a concentration of 1 μM in the media. All sections were stained with H&E except for I, which was stained with PAS to detect glycoproteins and glandular differentiantion, and J, which was stained with the TUNEL assay to detect apoptosis. All magnifications are 40×.
To test our hypotheses, we evaluated the effects of clinically achievable concentrations of 4-HPR and Flex-Hets on growth, differentiation and apoptosis in ovarian tissue. A series of compounds with a variety of receptor activation profiles were evaluated. In order to evaluate therapeutic effects, we developed an organotypic culture model of ovarian tumors by growing established cell lines and primary cultures inside collagen gels. Monolayer cultures of cells are not accurate representations of in vivo tissue because they lack the types of interactions that cells have with other cells and with the extracellular matrix in vivo. These interactions are known to influence gene expression and thus the constitution and behavior of cells. In our organotypic model, the growth of tumor cells inside the collagen allows a representation of tumors that have invaded stromal tissue. In the presence of fibroblasts, established cell lines and primary cultures of ovarian cancer formed colonies inside the collagen, while normal or benign ovarian epithelial cells remained as single cells inside the collagen. Human ovarian cancer cell lines (OVCAR-3, Caov-3, SK-OV-3, A2780, UCI 101) and primary human cultures (borderline ovarian tumor (O1), serous papillary tumor (O2), benign ovarian cyst (O3)) were cultured inside and on top of a collagen gel seeded with 3T3 fibroblasts for one week. After further incubation in the presence or absence of 1 μM retinoid (media concentration) for 3, 7 or 14 days, cultures were fixed and sectioned for immunohistochemical analysis.

ovarian cancer cells = assay: Microarray analysis of gene expression in SHetA2-treated ovarian cancer cells; type: cell-based, human
Experimental: Microarray analysis was conducted to determine specific disease causing genes which were expressed at higher (>1 fold) or lower (<1 fold) levels than normal in ovarian cancer cells treated with SHetA2 (see Table 6).

[2] = RAID pharmacokinetic studies (35); cited from earlier work

Which “induction of apoptosis (TUNEL) in organotypic cultures” value [1] does the source give for `CC1(C)CC(C)(C)c2cc(NC(=S)Nc3ccc([N+](=O)[O-])cc3)ccc2S1` [SHetA2] here?
The value was “Apoptosis was induced; also recorded: highest level of apoptosis”.

And the “regulation of growth, differentiation and apoptosis, rank among eleven retinoids” value [1]?
Its value is “most potent regulator of growth, differentiation and apoptosis”.

What about the Fold (ovarian cancer cells; gene: 3-hydroxyisobutyrate dehydrogenase, mitochondrial precursor, AK025558) of the same compound?
The Fold was 0.00 Fold.

What about the Fold (ovarian cancer cells; gene: A kinase (PRKA) anchor protein 1, clone MGC:1807, BC000729.1) of the same compound?
Its Fold is 2.00 Fold.

And the Fold (ovarian cancer cells; gene: A kinase anchor protein S-AKAP84 mRNA, U34074.1)?
The Fold was 2.14 Fold.

What about the Fold (ovarian cancer cells; gene: ADAMTS1, AK023795.1) of the same compound?
Its Fold is 0.43 Fold.

And the Fold (ovarian cancer cells; gene: ADAMTS5, NM_007038.1)?
The Fold was 0.23 Fold.

What about the Fold (ovarian cancer cells; gene: ASPLTFE3 type 2 fusion protein, ASPLTFE3 type 1 fusion protein mRNA, AY034077.1) of the same compound?
The Fold was 0.46 Fold.

And the Fold (ovarian cancer cells; gene: ATP-binding cassette, sub-family B (MDRTAP), member 6 (ABCB6), NM_005689.1)?
Its Fold is 0.46 Fold.

And the Fold (ovarian cancer cells; gene: ATP-binding cassette, sub-family D (ALD), member 2 (ABCD2), NM_005164.1)?
The Fold was 2.71 Fold.

What about the Fold (ovarian cancer cells; gene: Amyotrophic lateral sclerosis 2 (juvenile) chromosome region, candidate 3 (ALS2CR3), NM_015049.1) of the same compound?
The Fold was 0.41 Fold.

What about the Fold (ovarian cancer cells; gene: Angiopoietin-like 2 (ANGPTL2), NM_012098.1) of the same compound?
Its Fold is 2.16 Fold.

And the Fold (ovarian cancer cells; gene: B-cell CLLlymphoma 3 (BCL3), AI829875)?
The Fold was 2.58 Fold.

And the Fold (ovarian cancer cells; gene: B-cell CLLlymphoma 3 (BCL3), NM_005178.1)?
Its Fold is 2.05 Fold.

And the Fold (ovarian cancer cells; gene: BAGE2 antigen (BAGE2), AF218570.1)?
Its Fold is 0.34 Fold.

What about the Fold (ovarian cancer cells; gene: BAM in multiple myeloma, AF455755.1) of the same compound?
Its Fold is 3.05 Fold.

What about the Fold (ovarian cancer cells; gene: Butyrophilin (BTF3), Cluster Incl. U90548) of the same compound?
The Fold was 2.15 Fold.

And the Fold (ovarian cancer cells; gene: Butyrophilin, subfamily 3, member A2 (BTN3A2), AI991252)?
The Fold was 2.31 Fold.

And the Fold (ovarian cancer cells; gene: Butyrophilin, subfamily 3, member A3 (BTN3A3), NM_006994.2)?
Its Fold is 2.04 Fold.

And the Fold (ovarian cancer cells; gene: Cervical cancer suppressor gene-4 protein (HCCS-4), AF465843.1)?
The Fold was 2.06 Fold.

And the Fold (ovarian cancer cells; gene: Chromosome 5 open reading frame 4 (C5ORF4), NM_016348.1)?
The Fold was 2.76 Fold.

And the Fold (ovarian cancer cells; gene: Deleted in lymphocytic leukemia, 2/DEF = Homo sapiens BCMS-upstream neighbor (BCMSUN), AF264787.1)?
The Fold was 0.33 Fold.

What about the Fold (ovarian cancer cells; gene: Deleted in lymphocytic leukemia, BCMS-upstream neighbor (BCMSUN) (DLEU2), AF264787.1) of the same compound?
Its Fold is 0.40 Fold.

What about the Fold (ovarian cancer cells; gene: Dysferlin, limb girdle muscular dystrophy 2B (DYSF), NM_003494.1) of the same compound?
Its Fold is 2.16 Fold.

And the Fold (ovarian cancer cells; gene: Dystrophin, dystrophin Dp40 isoform (DMD), NM_004019.1)?
Its Fold is 2.76 Fold.

What about the Fold (ovarian cancer cells; gene: EHT protein, AF068266.1) of the same compound?
Its Fold is 2.80 Fold.

What about the Fold (ovarian cancer cells; gene: ESTs, Moderately similar to S72399 ras-homolog GTPase rab28 isoform S, AI080106) of the same compound?
The Fold was 7.75 Fold.

And the Fold (ovarian cancer cells; gene: ESTs, Weakly similar to DRPL_Human Atrophin-1 (DRPL) in Huntington's disease (HD) and DRPLA, AI358954)?
The Fold was 2.52 Fold.

What about the Fold (ovarian cancer cells; gene: ESTs, Weakly similar to DRPL_Human Atrophin-1 (DRPL) in dentatorubral-pallidoluysian atrophy, AI358954) of the same compound?
The Fold was 2.52 Fold.

And the Fold (ovarian cancer cells; gene: Endothelial cell growth factor 1 (platelet-derived)/Thymidine phosphorylase, NM_001953)?
Its Fold is 0.42 Fold.

What about the Fold (ovarian cancer cells; gene: Enhancer of zeste (Drosophila) homolog 2 (EZH2) (USP14), NM_004456.1) of the same compound?
The Fold was 0.47 Fold.

And the Fold (ovarian cancer cells; gene: FLJ23538 fis, highly similar to BETA2 Human MEN1 region clone epsilonbeta (BETA2), AI042152)?
The Fold was 0.31 Fold.

And the Fold (ovarian cancer cells; gene: FYN oncogene related to SRC, FGR and YES (FYN), N20923)?
Its Fold is 0.13 Fold.

And the Fold (ovarian cancer cells; gene: FYN oncogene related to SRC, FGR and YES, c-syn protooncogene, M14333.1)?
Its Fold is 0.44 Fold.

And the Fold (ovarian cancer cells; gene: Facioscapulohumeral muscular dystrophy (FSHD) gene region, D4Z4 tandem repeat unit, D38024)?
Its Fold is 2.43 Fold.

And the Fold (ovarian cancer cells; gene: Familial Mediterranean fever locus region, AF098968.1)?
Its Fold is 0.30 Fold.

And the Fold (ovarian cancer cells; gene: Fibroblast growth factor 2 (basic)(FGF2), NM_002006.1)?
Its Fold is 0.35 Fold.

And the Fold (ovarian cancer cells; gene: Fibroblast growth factor 18 (FGF18), NM_003862.1)?
Its Fold is 2.75 Fold.

What about the Fold (ovarian cancer cells; gene: Galactosamine (N-acetyl)-6-sulfate sulfatase, NM_000512) of the same compound?
The Fold was 0.52 Fold.

And the Fold (ovarian cancer cells; gene: Glypican-6 (GPC6), AF111178.1)?
The Fold was 2.07 Fold.

And the Fold (ovarian cancer cells; gene: Hemochromatosis splice variant 495-2314del, AF144243.1)?
The Fold was 3.01 Fold.

What about the Fold (ovarian cancer cells; gene: IMAGE:3050107 mRNA, TBC1 domain family, BC001525) of the same compound?
Its Fold is 0.67 Fold.

And the Fold (ovarian cancer cells; gene: Keratocan (KERA), NM_007035.2)?
The Fold was 0.50 Fold.

What about the Fold (ovarian cancer cells; gene: Lipoma cell line Li-538SV40 ectopic sequence from HMGI-C fusion mRNA (LI), AI990940) of the same compound?
The Fold was 0.47 Fold.

And the Fold (ovarian cancer cells; gene: METH1 protein (METH1), AF060152.1)?
Its Fold is 0.39 Fold.

And the Fold (ovarian cancer cells; gene: Myeloidlymphoid leukemia 2 (MLL2), AF105279.1)?
The Fold was 0.31 Fold.

What about the Fold (ovarian cancer cells; gene: Myeloidlymphoid or mixed-lineage leukemia, translocated to, 4 (HGC6.3), AB016902.2) of the same compound?
Its Fold is 5.07 Fold.

What about the Fold (ovarian cancer cells; gene: N-cym protein, NM_006316) of the same compound?
The Fold was 2.38 Fold.

What about the Fold (ovarian cancer cells; gene: NICE-5 protein, AW779859) of the same compound?
The Fold was 0.48 Fold.

What about the Fold (ovarian cancer cells; gene: Nasopharyngeal carcinoma susceptibility protein (LZ16), NM_013275.1) of the same compound?
Its Fold is 0.41 Fold.

And the Fold (ovarian cancer cells; gene: Nephropontin, M83248.1)?
The Fold was 2.34 Fold.

And the Fold (ovarian cancer cells; gene: Neuroblastoma, suppression of tumorigenicity 1 (NBL1), NM_005380.1)?
Its Fold is 3.07 Fold.

What about the Fold (ovarian cancer cells; gene: Niban protein (NIBAN), NM_022083.1) of the same compound?
Its Fold is 0.21 Fold.

What about the Fold (ovarian cancer cells; gene: Novel MAFF LIKE protein, Cluster Incl. AL021977) of the same compound?
Its Fold is 0.47 Fold.

And the Fold (ovarian cancer cells; gene: PNAS-128 in leukemia, AF277186.1)?
Its Fold is 0.36 Fold.

And the Fold (ovarian cancer cells; gene: Peroxisomal biogenesis factor 3 (PEX3), NM_003630.1)?
Its Fold is 0.43 Fold.

What about the Fold (ovarian cancer cells; gene: Peroxisomal biogenesis factor 14 (PEX14), NM_004565.1) of the same compound?
The Fold was 2.06 Fold.

What about the Fold (ovarian cancer cells; gene: Promyelocytic leukemia (PML), NM_002675.1) of the same compound?
The Fold was 2.76 Fold.

What about the Fold (ovarian cancer cells; gene: Prostate cancer associated protein 5 (PCANAP5), AI299378) of the same compound?
The Fold was 0.23 Fold.

And the Fold (ovarian cancer cells; gene: Prothymosin alpha (PTMA), AF257099)?
Its Fold is 2.60 Fold.

And the Fold (ovarian cancer cells; gene: Putative c-Myc-responsive (RCL), AA523444)?
The Fold was 0.41 Fold.

And the Fold (ovarian cancer cells; gene: RASSF3 isoform A, putative tumor suppressor, AY062002.1)?
Its Fold is 2.88 Fold.

And the Fold (ovarian cancer cells; gene: RNA binding motif protein 5, putative tumor suppressor (LUCA15), U23946.1)?
Its Fold is 0.43 Fold.

And the Fold (ovarian cancer cells; gene: Regulatory factor X-associated protein (RFXAP), NM_000538.1)?
The Fold was 0.41 Fold.

And the Fold (ovarian cancer cells; gene: Retinitis pigmentosa GTPase regulator (RPGR), NM_000328.1)?
Its Fold is 0.47 Fold.

And the Fold (ovarian cancer cells; gene: Rhabdoid tumor deletion region protein 1 (RTDR1), NM_014433.1)?
The Fold was 2.20 Fold.

What about the Fold (ovarian cancer cells; gene: SNRPN upstream reading frame (SNURF), BF114870) of the same compound?
Its Fold is 0.39 Fold.

And the Fold (ovarian cancer cells; gene: Sarcoglycan, gamma (35 kD dystrophin-associated glycoprotein), NM_000231.1)?
The Fold was 0.04 Fold.

What about the Fold (ovarian cancer cells; gene: Similar to vitelliform macular dystrophy (Best disease, bestrophin), BC041664.1) of the same compound?
The Fold was 0.26 Fold.

What about the Fold (ovarian cancer cells; gene: Smcx homolog, X chromosome (mouse), NM_004187) of the same compound?
The Fold was 0.61 Fold.

And the Fold (ovarian cancer cells; gene: Sulfite oxidase (SUOX), NM_000456.1)?
The Fold was 2.11 Fold.

What about the Fold (ovarian cancer cells; gene: Thrombospondin 1 (THBS1), BE999967) of the same compound?
The Fold was 0.42 Fold.

What about the Fold (ovarian cancer cells; gene: Thrombospondin 4, NM_003248) of the same compound?
Its Fold is 0.58 Fold.

And the Fold (ovarian cancer cells; gene: Thromospondin 4 (THBS4), NM_03248.1)?
The Fold was 2.58 Fold.

What about the Fold (ovarian cancer cells; gene: Transglutaminase 4 (prostate), NM_003241) of the same compound?
The Fold was 0.24 Fold.

What about the Fold (ovarian cancer cells; gene: Translocase of inner mitochondrial membrane 44 (yeast) homolog (TIM44), NM_006351.1) of the same compound?
Its Fold is 0.50 Fold.

And the Fold (ovarian cancer cells; gene: Trichorhinophalangeal syndrome I gene (TRPS1), NM_014112.1)?
The Fold was 0.36 Fold.

What about the Fold (ovarian cancer cells; gene: UDP-galactose-4-epimerase, NM_000403) of the same compound?
Its Fold is 0.66 Fold.

What about the Fold (ovarian cancer cells; gene: Unknown protein mRNA within the p53 intron 1, U58658.1) of the same compound?
The Fold was 0.45 Fold.

And the Fold (ovarian cancer cells; gene: Vascular endothelial growth factor (VEGF), AF022375.1)?
Its Fold is 0.47 Fold.

What about the Fold (ovarian cancer cells; gene: Vitelliform macular dystrophy (Best disease, bestrophin) (VMD2), NM_004183.1) of the same compound?
The Fold was 0.28 Fold.

What about the Fold (ovarian cancer cells; gene: aarF domain containing kinase 4, BC013114) of the same compound?
The Fold was 2.30 Fold.

And the Fold (ovarian cancer cells; gene: v-Myc avian myelocytomatosis viral related oncogene, neuroblastoma derived (MYCN), BC002712.1)?
The Fold was 3.99 Fold.

And the “concentrations achieved and maintained in mice” value [2]?
Its value is “micromolar concentrations”.
